Experimental data: patent US7192975B2, “Arylimidazole derivatives, preparation and therapeutic used thereof” (Societe de Conseils de Recherches Et d''Applications …, priority 2002, dated 2007)
Counter-ions that a name gives are not always drawn.

SMILES | melting point
CCCCOC(=O)NCCc1nc(-c2ccc(-c3ccc(N=C(N)c4cccs4)cc3)cc2)c[nH]1 (as salt: hydrochloride) [Example 3, butyl 2-[4-(4′-{[(1Z)-amino(thien-2-yl)methylene]amino}-1,1′-biphenyl-4-yl-1H-imidazol-2-yl]ethylcarbamate hydrochloride] | 97 to 98 °C
NC(=Nc1cccc(-c2c[nH]c(CNC3CCCCC3)n2)c1)c1cccs1 (as salt: hydrochloride) [Example 6, N′-(3{2-[cyclohexylamino)methyl]-1H-imidazol-4-yl}phenyl)thiophene-2-carboximidamide hydrochloride] | > 225 °C
N=C(Nc1cccc(-c2c[nH]c(CCC3CCCCC3)n2)c1)c1cccs1 (as salt: hydrochloride) [Example 13, N-{3[2-(2-cyclohexlethyl)-1H-imidazol-4-yl]phenyl}thiophene-2-carboximidamide hydrochloride] | > 191 °C
NC(=N[N+](=O)[O-])Nc1ccc(-c2c[nH]c(CCC3CCCCC3)n2)cc1 (as salt: hydrochloride) [Example 19, N{4-[2-(2-cyclohexylethyl)-1H-imidazol-4-yl]phenyl}N″-nitroguanidine hydrochloride] | 185 to 186 °C
CCCCN(CCc1nc(-c2cccc(/N=C(/N)c3cccs3)c2)c[nH]1)C(=O)O.Cl [Example 2, butyl-2[4(3-{[(1E)-amino(thien-2yl)methylene]-amino}phenyl)-1H-imidazol-2-yl]ethylcarbamate hydrochloride] | 210 to 212 °C
Cl.NC(=Nc1ccc(-c2c[nH]c(CCNC3CCCCC3)n2)cc1)c1cccs1 [Example 5, N′-(4-{2-[2-(cyclohexylamino)ethyl]-1H-imidazol-4-yl}phenyl)thiophene-2-carboximidamide hydrochloride] | 185 to 186 °C
CN(Cc1nc(-c2ccc(N=C(N)c3cccs3)cc2)c[nH]1)C1CCCCC1.Cl [Example 7, N′-[4-(2-{[cyclohexyl(methyl)amino]methyl}-1H-imidazol-4-yl)phenyl]thiophene-2-carboximidamide hydrochloride] | 240 to 241 °C
Cl.NC(=Nc1ccc(-c2c[nH]c(CN(Cc3ccccc3)Cc3ccccc3)n2)cc1)c1cccs1 [Example 8, N′-(4{2-[(dibenzylamino)methyl]-1H-imidazol-4-yl}phenyl)thiophene-2-carboximidamide hydrochloride] | 150 to 151 °C
Cl.NC(=Nc1ccc(-c2c[nH]c(CNCc3ccccc3)n2)cc1)c1cccs1 [Example 9, N′-(4-{2-[(benzylamino)methyl]-1H-imidazol-4-yl}phenyl)thiophene-2-carboximidamide hydrochloride] | 228 to 229 °C
Cl.NC(=Nc1cccc(-c2c[nH]c(C/N=C(/N)c3cccs3)n2)c1)c1cccs1 [Example 11, N′-{3[2-({[(1E)-amino(thien-2-yl)methylene]-amino}methyl)-1H-imidazol-4-yl]phenyl}thiophene-2-carboximidamide hydrochloride] | > 300 °C
Cl.NC(=Nc1ccc(-c2c[nH]c(C/N=C(/N)c3cccs3)n2)cc1)c1cccs1 [Example 12, N′-{4-[2-({[(1E)-amino(thien-2-yl)methylene]-amino}methyl)-1H-imidazol-4-yl]phenyl}thiophene-2-carboximidamide hydrochloride] | 227 to 228 °C
CCCCCC(CCCCC)c1nc(-c2cccc(N=C(N)c3cccs3)c2)c[nH]1.Cl [Example 14, N′-{3-[2(1-pentylhexyl)-1H-imidazol-4-yl]phenyl}thiophene-2-carboximidamide hydrochloride] | 163.3 °C
Cl.NC(=Nc1ccc(-c2c[nH]c(CCC3CCCCC3)n2)cc1)c1cccs1 [Example 15, N′-{4-[2-(2-cyclohexylethyl)-1H-imidazol-4-yl]phenyl}thiophene-2-carboximidamide hydrochloride] | 196.2 °C
Cl.NC(=Nc1cccc(-c2c[nH]c(CCCC3CCCCC3)n2)c1)c1cccs1 [Example 17, N′-{3-[2-(3-cyclohexylpropyl)-1H-imidazol-4-yl]phenyl}thiophene-2-carboximidamide hydrochloride] | 180 to 181 °C
Cl.NC(=Nc1ccc(-c2c[nH]c(CNC3CCCCCC3)n2)cc1)c1cccs1 [Example 20, N′-(4-{2-[(cycloheptylamino)methyl]-1H-imidazol-4-yl}phenyl)thiophene-2-carboximidamide hydrochloride] | 264 to 265 °C
CNCc1nc(-c2ccc(N=C(N)c3cccs3)cc2)c[nH]1.Cl [Example 21, N′-(4-{2-[(methylamino)methyl]-1H-imidazol-4-yl}phenyl)thiophene-2-carboximidamide hydrochloride] | > 250 °C
Cl.NC(=Nc1ccc(-c2c[nH]c(CNC3CCC3)n2)cc1)c1cccs1 [Example 22, N′-(4-{2-[(cyclobutylamino)methyl]-1H-imidazol-4-yl}phenyl)thiophene-2-carboximidamide hydrochloride] | 263 to 264 °C
Cl.NC(=Nc1ccc(-c2c[nH]c(CNCC(c3ccccc3)c3ccccc3)n2)cc1)c1cccs1 [Example 23, N′[4-(2-{[(2,2-diphenylethyl)amino]methyl}-1H-imidazol-4-yl)phenyl]thiophene-2-carboximidamide hydrochloride] | > 250 °C
Cl.NC(=Nc1cccc(-c2c[nH]c(CC/N=C(/N)c3cccs3)n2)c1)c1cccs1 [Example 24, N′-{3-[2-(2{[(1E)-amino(thien-2-yl)methylene]amino}ethyl)-1H-imidazol-4-yl]phenyl}thiophene-2-carboximidamide hydrochloride] | > 245 °C
CC(C)Cc1ccc(Cc2nc(-c3cccc(N=C(N)c4cccs4)c3)c[nH]2)cc1.Cl [Example 27, N′-{3-[2-(4-isobutylbenzyl)-1H-imidazol-4-yl]phenyl}thiophene-2-carboximidamide hydrochloride] | 214 to 216 °C
